Target: T1, Human GLP-1 receptor (Homo sapiens, UniProt P43220)
T1 construct: expressed in transfected cells
Test: Measurement of GLP-1 receptor agonist activity (cAMP assay)
Format: cell-based
Conditions: hGLP-1R/CHO-K1 cells; for Emax: cAMP with 2 nM human GLP-1 (7-36) = 100%, DMSO only = 0%; for EC50: increase in cAMP concentration as index, 37° C., 1 hour
Procedure: Test Example 1: Measurement of GLP-1 Receptor Agonist Activity
Human GLP-1 receptor stably expressing cells (hGLP-1R/CHO-K1 cells) are cultured in an a-MEM medium (Sigma) containing 10% FBS (Hyclone), 2% GlutaMAX (Gibco), 1% G418 (Nacalai Tesque), and 1% Penicillin-Streptomycin Mixed Solution (Sigma) at 37° C. under 5% CO2 conditions, and recovered by treating a 10 fold diluted 5.0 g/l-trypsin/5.3 mmol/l-EDTA solution (Nacalai Tesque) and cryopreserved.
A DMSO solution containing the compound of the present invention or human GLP-1 (7-36) (Phoenix Pharmaceuticals) is dispensed into a 384-well microplate (Greiner) at 62.5 nL/well, and in addition, 400 μM Forskolin (Nacalai Tesque) is dispensed therein at 7.5 nL/well. Subsequently, the frozen GLP-1 R/CHO-K1 cells are thawed in a thermostatic bath at 37° C., suspended in HBSS buffer containing 0.1% BSA (Sigma), 20 mM HEPES (GIBCO), 0.1 mM IBMX (Sigma), and 0.2 mM RO20-1724 (Calbiochem) at 2×10^4 cells/mL, and the cell suspension is added at 6 μL/well. The solution was incubated at 37° C. for 1 hour and intracellular cAMP concentration is measured using CAMP Gs dynamic kit (Cisbio) according to the protocol attached to the product. Specifically, a cAMP-d2/Anti-cAMP-Cryptate (1/1) mixed solution is added in a total amount of 6 μL/well, the mixture is incubated at room temperature for 1 hour, and time-resolved fluorescence is measured using PHERAstar (BMG Labtech).
Assuming that the CAMP concentration when human GLP-1 (7-36) is dispensed to a final concentration of 2 nM is 100% and the CAMP concentration when only DMSO is dispensed is 0%, the 50% effective concentration (EC50) and the maximum effect (Emax) of the compound of the present invention are calculated using an increase in the CAMP concentration as an index, using TIBCO Spotfire (TIBCO Software). The dilution concentration or the dilution solvent are changed as necessary.
The compounds of the present invention were tested essentially as described above.

T1 sequence (P43220 24-463): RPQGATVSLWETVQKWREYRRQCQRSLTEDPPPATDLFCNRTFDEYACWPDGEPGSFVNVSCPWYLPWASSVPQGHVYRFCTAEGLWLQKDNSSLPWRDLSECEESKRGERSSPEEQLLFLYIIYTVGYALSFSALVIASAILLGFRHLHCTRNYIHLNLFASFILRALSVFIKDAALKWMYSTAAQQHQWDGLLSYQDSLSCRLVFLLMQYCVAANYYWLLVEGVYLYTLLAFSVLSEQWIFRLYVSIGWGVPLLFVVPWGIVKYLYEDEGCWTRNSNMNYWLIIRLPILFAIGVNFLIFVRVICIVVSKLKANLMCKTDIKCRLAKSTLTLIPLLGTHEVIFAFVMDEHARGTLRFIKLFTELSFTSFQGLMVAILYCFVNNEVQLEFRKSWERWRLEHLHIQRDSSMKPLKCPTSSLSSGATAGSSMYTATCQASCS

Compound | Emax | EC50
Oc1nnc(-c2c(Cl)nc(CN3CCC(c4cccc(OCc5ccc(Cl)cc5F)n4)CC3)n2C[C@@H]2CCO2)o1 [I - 005] | 98.7% | 16.2 nM
O=C(O)/C=C/c1c(Br)nc(CN2CCC(c3cccc(OCc4ccc(Cl)cc4F)n3)CC2)n1C[C@@H]1CCO1 [I - 003] | 107% | 0.401 nM
Cn1c(/C=C/C(=O)O)cnc1CN1CCC(c2cccc(OCc3ccc(Cl)cc3F)n2)CC1 [I - 001] | 63.7% | 181 nM
Cn1c(CN2CCC(c3cccc(OCc4ccc(Cl)cc4F)n3)CC2)nc(Br)c1/C=C/C(=O)O [I - 002] | 85% | 31.5 nM
Oc1nnc(-c2c(Br)nc(CN3CCC(c4cccc(OCc5ccc(Cl)cc5F)n4)CC3)n2C[C@@H]2CCO2)o1 [I - 004] | 97% | 7 nM
C[C@]1(c2ccc(Cl)cc2F)Oc2cccc(C3CCN(Cc4nc(Cl)c(/C=C/C(=O)O)n4C[C@@H]4CCO4)CC3)c2O1 [I - 007] | 92% | 0.138 nM

The remaining lines, values ahead:

Emax | EC50 | Compound
99.7% | 0.0965 nM | C[C@H]1c2nc(OCc3ccc(Cl)cc3F)c(C(F)(F)F)cc2CCN1Cc1nc(Cl)c(/C=C/C(=O)O)n1C[C@@H]1CCO1 [I - 011]
118% | 1.41 nM | O=C(O)/C=C/c1c(Cl)nc(CN2CCC(c3cccc(OCc4ccc(Cl)cc4F)n3)CC2)n1C[C@@H]1CCO1 [I - 006]
96% | 0.151 nM | C[C@H]1c2nc(OCc3ccc(Cl)cc3F)c(Cl)cc2CCN1Cc1nc(Br)c(/C=C/C(=O)O)n1C[C@@H]1CCO1 [I - 010]
101% | 0.686 nM | C[C@H]1c2nc(OCc3ccc(Cl)cc3F)c(C(F)(F)F)cc2CCN1Cc1ncc(/C=C/C(=O)O)n1C[C@@H]1CCO1 [I - 009]
117% | 0.283 nM | C[C@H]1c2nc(OCc3ccc(Cl)cc3F)c(C(F)F)cc2CCN1Cc1nc(Cl)c(/C=C/C(=O)O)n1C[C@@H]1CCO1 [I - 012]
105% | 0.368 nM | C[C@H]1c2cc(OCc3ccc(Cl)cc3F)c(C(F)(F)F)cc2CCN1Cc1nc(Br)c(/C=C/C(=O)O)n1C[C@@H]1CCO1 [I - 008]

From patent US20260265245A1, “AROMATIC HETEROCYCLIC DERIVATIVE HAVING GLP-1 RECEPTOR AGONIST ACTIVITY” (Shionogi & Co., Ltd., priority 2021, published 2026)
